The target in the assay is T1, MLLT1 (Homo sapiens, UniProt Q03111).
T1 construct: endogenous in cells; host or cells: MV4-11 (ATCC CRL-9591)
T1 sequence (Q03111 1-559): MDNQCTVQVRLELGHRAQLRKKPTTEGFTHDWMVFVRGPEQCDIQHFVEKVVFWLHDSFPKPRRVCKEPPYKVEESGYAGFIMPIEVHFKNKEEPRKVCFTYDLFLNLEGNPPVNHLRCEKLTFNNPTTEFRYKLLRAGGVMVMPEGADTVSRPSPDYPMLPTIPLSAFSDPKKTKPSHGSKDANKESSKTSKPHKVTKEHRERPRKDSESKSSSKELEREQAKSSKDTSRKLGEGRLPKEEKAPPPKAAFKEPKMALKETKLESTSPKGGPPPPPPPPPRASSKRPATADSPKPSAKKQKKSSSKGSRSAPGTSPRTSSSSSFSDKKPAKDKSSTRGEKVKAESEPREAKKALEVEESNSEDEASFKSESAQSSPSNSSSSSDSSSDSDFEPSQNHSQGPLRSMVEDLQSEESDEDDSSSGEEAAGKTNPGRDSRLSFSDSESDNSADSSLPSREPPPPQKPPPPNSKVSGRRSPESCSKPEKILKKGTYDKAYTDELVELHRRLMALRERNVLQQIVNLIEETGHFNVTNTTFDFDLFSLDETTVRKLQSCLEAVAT
Put plainly: MLLT1 Degradation Assay (JESS automated chemiluminescent detection, MV4-11 cells). The following applies: 24h, with respect to DMSO control; for MLLT1 % Degradation @ 0.01 µM: 0.01 µM (10 nM) test compound; for MLLT1 % Degradation @ 0.1 µM: 0.1 µM (100 nM) test compound; for MLLT 1 % Degradation @ 1 µM: 1 µM (1000 nM) test compound. The assay is classed as cell-based. A digest of the protocol: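 MV4-11 cells were treated for 24 h at 37 °C, 5% CO2 with compound at 1000, 100 and 10 nM (0.1% DMSO). MLLT1 was quantified by automated capillary chemiluminescent immunodetection (JESS). Band peak areas were expressed as % degradation relative to DMSO control.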

As to `CN1CCC[C@@H]1c1cc2cnc(NC(=O)c3ccc(-c4ccn(CCCC#Cc5cccc6c5CN(C5CCC(=O)NC5=O)C6=O)n4)cc3)cc2[nH]1` (mixture of isomers) [Example 20, 4-(1-(5-(2-(2,6-dioxopiperidin-3-yl)-1-oxoisoindolin-4-yl)pent-4-yn-1-yl)-1H-pyrazol-3-yl)-N-(2-((R)-1-methylpyrrolidin-2-yl)-1H-pyrrolo[3,2-c]pyridin-6-yl)benzamide], the “MLLT1 % Degradation @ 0.01 µM” value is given as “B (Category B: 50% ≤ B < 75% degradation)”, the “MLLT1 % Degradation @ 0.1 µM” value was “B (Category B: 50% ≤ B < 75% degradation)” and the “MLLT 1 % Degradation @ 1 µM” value was “C (Category C: 25% ≤ C < 50% degradation)”.
Regarding `CN1CCC[C@@H]1c1cc2cnc(NC(=O)CCCCCC3CCN(c4cccc5c4C(=O)N(C4CCC(=O)NC4=O)C5=O)CC3)cc2[nH]1` (stereo partly drawn) [Example 43, 6-(1-(2-(2,6-dioxopiperidin-3-yl)-1,3-dioxoisoindolin-4-yl)piperidin-4-yl)-N-(2-((R)-1-methylpyrrolidin-2-yl)-1H-pyrrolo[3,2-c]pyridin-6-yl)hexanamide], the “MLLT1 % Degradation @ 0.1 µM” value is “A (Category A: A ≥ 75% degradation)” and the “MLLT 1 % Degradation @ 1 µM” value is reported as “B (Category B: 50% ≤ B < 75% degradation)”.
`CN1CCC[C@@H]1c1cc2cnc(NC(=O)CCCCCCCCNc3cccc4c3C(=O)N(C3CCC(=O)NC3=O)C4=O)cc2[nH]1` (stereo partly drawn) [Example 30, 9-{[2-(2,6-dioxopiperidin-3-yl)-1,3-dioxoisoindol-4-yl]amino}-N-{2-[(2R)-1-methylpyrrolidin-2-yl]-1H-pyrrolo[3,2-c]pyridin-6-yl}nonanamide]: the “MLLT1 % Degradation @ 0.01 µM” value is “C (Category C: 25% ≤ C < 50% degradation)”, the “MLLT1 % Degradation @ 0.1 µM” value is “B (Category B: 50% ≤ B < 75% degradation)” and the “MLLT 1 % Degradation @ 1 µM” value was “A (Category A: A ≥ 75% degradation)”.
For the molecule `CN1CCC[C@@H]1c1cc2cnc(NC(=O)c3cccc(C4CCN(c5cccc6c5C(=O)N(C5CCC(=O)NC5=O)C6=O)CC4)c3)cc2[nH]1` (stereo partly drawn) [Example 14, 3-(1-(2-(2,6-dioxopiperidin-3-yl)-1,3-dioxoisoindolin-4-yl)piperidin-4-yl)-N-(2-((R)-1-methylpyrrolidin-2-yl)-1H-pyrrolo[3,2-c]pyridin-6-yl)benzamide], the “MLLT1 % Degradation @ 0.01 µM” value was “B (Category B: 50% ≤ B < 75% degradation)”, the “MLLT1 % Degradation @ 0.1 µM” value was “A (Category A: A ≥ 75% degradation)” and the “MLLT 1 % Degradation @ 1 µM” value was “A (Category A: A ≥ 75% degradation)”.
For `CN1CCC[C@@H]1c1cc2cnc(NC(=O)c3ccc(-c4cnn(CCCC#Cc5cccc6c5CN(C5CCC(=O)NC5=O)C6=O)c4)cc3)cc2[nH]1` (stereo partly drawn) [Example 21, 4-(1-(5-(2-(2,6-dioxopiperidin-3-yl)-1-oxoisoindolin-4-yl)pent-4-yn-1-yl)-1H-pyrazol-4-yl)-N-(2-((R)-1-methylpyrrolidin-2-yl)-1H-pyrrolo[3,2-c]pyridin-6-yl)benzamide], the “MLLT1 % Degradation @ 0.01 µM” value is “A (Category A: A ≥ 75% degradation)”, the “MLLT1 % Degradation @ 0.1 µM” value is “A (Category A: A ≥ 75% degradation)” and the “MLLT 1 % Degradation @ 1 µM” value is “B (Category B: 50% ≤ B < 75% degradation)”.
With `CN1CCC[C@@H]1c1cc2cnc(NC(=O)c3ccc(-c4cnn(CCCC5CCN(c6cccc7c6C(=O)N(C6CCC(=O)NC6=O)C7=O)CC5)c4)cc3)cc2[nH]1` (stereo partly drawn) [Example 34, 4-[1-(3-{1-[2-(2,6-dioxopiperidin-3-yl)-1,3-dioxoisoindol-4-yl]piperidin-4-yl}propyl)pyrazol-4-yl]-N-{2-[(2R)-1-methylpyrrolidin-2-yl]-1H-pyrrolo[3,2-c]pyridin-6-yl}benzamide], the “MLLT1 % Degradation @ 0.1 µM” value was “A (Category A: A ≥ 75% degradation)” and the “MLLT 1 % Degradation @ 1 µM” value is reported as “A (Category A: A ≥ 75% degradation)”.
`CN1CCC[C@@H]1c1[nH]c2cc(NC(=O)c3ccc(CCCCC#Cc4cccc5c4CN(C4CCC(=O)NC4=O)C5=O)nc3)ncc2c1Cl` (stereo partly drawn) [Example 71, N-(3-chloro-2-((R)-1-methylpyrrolidin-2-yl)-1H-pyrrolo[3,2-c]pyridin-6-yl)-6-(6-(2-(2,6-dioxopiperidin-3-yl)-1-oxoisoindolin-4-yl)hex-5-yn-1-yl) nicotinamide]: the “MLLT1 % Degradation @ 0.01 µM” value is given as “A (Category A: A ≥ 75% degradation)”, the “MLLT1 % Degradation @ 0.1 µM” value is given as “A (Category A: A ≥ 75% degradation)” and the “MLLT 1 % Degradation @ 1 µM” value is “B (Category B: 50% ≤ B < 75% degradation)”.
Turning to `CN1CCC[C@@H]1c1[nH]c2cc(NC(=O)c3ccc(N4CCN(CC#Cc5cccc6c5CN(C5CCC(=O)NC5=O)C6=O)CC4)nc3)ncc2c1Cl` (stereo partly drawn) [Example 72, N-(3-chloro-2-((R)-1-methylpyrrolidin-2-yl)-1H-pyrrolo[3,2-c]pyridin-6-yl)-6-(4-(3-(2-(2,6-dioxopiperidin-3-yl)-1-oxoisoindolin-4-yl)prop-2-yn-1-yl)piperazin-1-yl)nicotinamide], the “MLLT1 % Degradation @ 0.01 µM” value is “A (Category A: A ≥ 75% degradation)”, the “MLLT1 % Degradation @ 0.1 µM” value is reported as “A (Category A: A ≥ 75% degradation)” and the “MLLT 1 % Degradation @ 1 µM” value was “C (Category C: 25% ≤ C < 50% degradation)”.
In the case of `CN1CCC[C@@H]1c1cc2cnc(NC(=O)c3ccc(CCC#Cc4cccc5c4CN(C4CCC(=O)NC4=O)C5=O)cc3F)cc2[nH]1` (stereo partly drawn) [Example 54, 4-(4-(2-(2,6-dioxopiperidin-3-yl)-1-oxoisoindolin-4-yl)but-3-yn-1-yl)-2-fluoro-N-(2-((R)-1-methylpyrrolidin-2-yl)-1H-pyrrolo [3,2-c]pyridin-6-yl) benzamide], the “MLLT1 % Degradation @ 0.01 µM” value is listed as “A (Category A: A ≥ 75% degradation)”, the “MLLT1 % Degradation @ 0.1 µM” value is listed as “A (Category A: A ≥ 75% degradation)” and the “MLLT 1 % Degradation @ 1 µM” value was “B (Category B: 50% ≤ B < 75% degradation)”.
For `CN1CCC[C@@H]1c1cc2cnc(NC(=O)c3ccc(CCC#Cc4cccc5c4CN(C4CCC(=O)NC4=O)C5=O)cc3)cc2[nH]1` (stereo partly drawn) [Example 52, 4-(4-(2-(2,6-dioxopiperidin-3-yl)-1-oxoisoindolin-4-yl)but-3-yn-1-yl)-N-(2-((R)-1-methylpyrrolidin-2-yl)-1H-pyrrolo[3,2-c]pyridin-6-yl)benzamide], the “MLLT1 % Degradation @ 0.01 µM” value was “A (Category A: A ≥ 75% degradation)”, the “MLLT1 % Degradation @ 0.1 µM” value is recorded as “A (Category A: A ≥ 75% degradation)” and the “MLLT 1 % Degradation @ 1 µM” value is given as “B (Category B: 50% ≤ B < 75% degradation)”.

(Values after EP4667467A1, “PROTAC DEGRADERS OF MLLT1 AND/OR MLLT3” (Dark Blue Therapeutics Ltd, priority 2024, dated 2025).)
